We go through two compounds from US9820957B2, “Methods of treating autoimmunity” (IM Therapeutics, Inc., priority 2016, dated 2017).

In data set [1] the test system is HLA-DQ8 antigen presenting cells with gliadin-responsive CD4 T cell receptor (TCR) transductant. Put plainly: Inhibition of DQ8 antigen presentation in vitro, gliadin-responsive TCR transductant, IL-2 ELISA. It is filed as cell-based. The note with it: for inhibition of gliadin-responsive TCR transductant (secreted IL-2): 4 hours with peptide and compound, then overnight with transductant; for IC50 compared between the enantiomers: gliadin-responsive TCR transductant. The procedure:
(§1) Inhibition of DQ8 antigen presentation by the D- and L-enantiomers of α-methyldopa was tested and compared in vitro. HLA-DQ8 antigen presenting cells were cultured with a fixed concentration of peptide and a concentration of D- or L-α-methyldopa for 4 hours. TCR transductants were then added to each culture condition and cultured overnight. Secreted IL-2 from the TCR transductant was measured by ELISA for each condition.
(§2) In these figures, 0 represents the TCR transductant response to peptide without the addition of α-methyldopa. No antigen IL-2 responses (negative control) were very low at <2 pg/ml. Results are presented as mean+/− SEM.
A general note: An ELISA detects its analyte on a solid surface through an enzyme-linked reagent.

For data set [2] the following is noted: cited from earlier work; for decarboxylation to α-methyl-dopamine in patients: Sjoerdsma et al. 1963, urine of treated patients.
For data set [3], the system named is HLA-DQ8 antigen presenting cells with insulin responsive CD4 T cell receptor (TCR) transductant. Put plainly: Inhibition of DQ8 antigen presentation in vitro, insulin responsive TCR transductant, IL-2 ELISA. It counts as cell-based. The conditions noted are these: for inhibition of insulin responsive TCR transductant (secreted IL-2): 4 hours with peptide and compound, then overnight with transductant; for IC50 compared between the enantiomers: insulin responsive TCR transductant. The procedure:
as §1, §2

The subject of a further data set is DQ8-restricted T cell. Put plainly: Pharmacodynamics in DQ8 transgenic mice: ex vivo splenocytes stimulating a DQ8-restricted T cell to deamidated gliadin peptide. The conditions noted are these: 4 mg by oral gavage daily for 5 days. The text has this: Ex vivo splenocytes were used to stimulate a DQ8-restricted T cell to a deamidated gliadin peptide.
Data set [4] can be described thus: Oral pharmacokinetics in HLA-DQ8 transgenic mice, plasma by HPLC-MS. It is filed as in vivo. The conditions noted are these: oral gavage, 4 mg. The protocol: Separate cohorts of HLA-DQ8 transgenic mice (n=2) were gavaged with a specific dose of L- and D-α-methyldopa, followed by the collection of plasma 90 minutes later. […] Similarly, separate cohorts of mice (n=3) were gavaged with a specific enantiomer (D or L enantiomer) and dose (4 mg by gavage) of α-methyldopa followed by the collection of plasma at baseline, 1, 2, 4, 6, and 18 hours later. […] In these PK studies the Lower Limit of Quantification (LLOQ) was <2.5 ng/ml. Results are presented as mean+/− SEM.

With `C[C@@](N)(Cc1ccc(O)c(O)c1)C(=O)O` [D-α-methyldopa, D-α-Methyl-3,4-dihydroxyphenylalanine], in data set [1], the “inhibition of gliadin-responsive TCR transductant (secreted IL-2)” value is on record as “blocked in a dose-dependent manner” and the “IC50 compared between the enantiomers” value was “statistically similar IC50 values”. In data set [2] (Au et al. 1972), the “absorption in humans compared with the other isomer” value is given as “much less readily absorbed”. Further, the “decarboxylation to α-methyl-dopamine in patients” value in data set [2] is “did not decarboxylate”. Besides, the pharmacologic activity result in data set [2] (prior art view, Du et al., Gillespie et al. 1962) is on record as “no pharmacologic activity”. In addition, in data set [3], the “inhibition of insulin responsive TCR transductant (secreted IL-2)” value was “blocked in a dose-dependent manner” and the “IC50 compared between the enantiomers” value is “statistically similar IC50 values”. Moreover, in the data set with DQ8-restricted T cell, the “inhibition of the DQ8-restricted T cell response to deamidated gliadin peptide” value is on record as “inhibition of the T cell response is observed” and the “response to positive control stimulus (anti-CD3)” value is listed as “not different between the groups”.

For the compound `C[C@](N)(Cc1ccc(O)c(O)c1)C(=O)O` [L-α-methyldopa, L-α-Methyl-3,4-dihydroxyphenylalanine, reference compound], in data set [1], the “inhibition of gliadin-responsive TCR transductant (secreted IL-2)” value is given as “blocked in a dose-dependent manner” and the “IC50 compared between the enantiomers” value was “statistically similar IC50 values”. Also, the “time to maximum plasma concentration (Tmax) compared with the other enantiomer” value in data set [4] is reported as “slightly slower”. Besides, the “decarboxylation to α-methyl-dopamine in patients” value in data set [2] is recorded as “α-methyl-dopamine did appear in the urine”. Besides, in data set [3], the “inhibition of insulin responsive TCR transductant (secreted IL-2)” value is reported as “blocked in a dose-dependent manner” and the “IC50 compared between the enantiomers” value is recorded as “statistically similar IC50 values”. Besides, in the data set on DQ8-restricted T cell, the “inhibition of the DQ8-restricted T cell response to deamidated gliadin peptide” value is given as “only for the D enantiomer” and the “response to positive control stimulus (anti-CD3)” value is “not different between the groups”.
